Literature values as cited in patent US11318156B2, “Solid injectable veterinary implants comprising monocyclic lactone” (CEVA SANTE ANIMALE, priority 2017, dated 2022).
Like-named read-outs stand apart in the source and are kept apart here.

How the values were obtained:
[1] = 14-week oral study
[2] = not given; remark: listed apart in the source

In the case of ivermectin, the “No Observable Effect Level (NOEL)” value ([1]; beagle dogs) is given as 0.5 mg/kg bw, the observed effects ([1]; beagle dogs, 1.0 and 2.0 mg/kg bw) is given as “mydriasis and slight weight loss” and the observed effects ([1]; four dogs in the 2.0 mg/kg bw group, killed prior to end of study) is given as “tremors, ataxia, anorexia and dehydration”. The “average increase in plasma levels” value (four-fold increase in the dose (0.5 to 2.0 mg/kg bw oral)) was “eight-fold”, the “time to steady-state of ivermectin (B1a) in plasma” value (oral 0.5 and 2.0 mg/kg bw, 36-day study) was “about three weeks” and the “share of collie dogs highly sensitive to ivermectin” value [2] was “approximately 30%”.
